# Active and inactive are the calls of the source. The rule behind the calls is not given here.
# Assays:
# BMDM [1] = experiment: Antiinflammatory activity in LPS-induced in C57 mouse BMDM cells assessed as reduction in IL-6 level by ELISA; type: functional, cell-based
# BMDM [2] = experiment: Antiinflammatory activity in LPS-induced in C57 mouse BMDM cells assessed as reduction in TNFalpha mRNA expression at 20 uM incubated for 12 hrs by qRT-PCR analysis; type: functional, cell-based
# BMDM [3] = experiment: Antiinflammatory activity in LPS-induced in C57 mouse BMDM cells assessed as reduction in IL-12 mRNA expression at 20 uM incubated for 12 hrs by qRT-PCR analysis; type: functional, cell-based
# BMDM [4] = experiment: Antiinflammatory activity in LPS-induced in C57 mouse BMDM cells assessed as reduction in IFN-gamma level at 5 to 20 uM by ELISA (Rvb < 7.8 pg/ml); type: functional; conditions: dose 5-20 µM
# BMDM [5] = experiment: Antiinflammatory activity in LPS-induced in C57 mouse BMDM cells assessed as reduction in TNFalpha level by ELISA; type: functional, cell-based
# BMDM [6] = experiment: Antiinflammatory activity in LPS-induced in C57 mouse BMDM cells assessed as reduction in IFN-gamma level at 10 to 20 uM by ELISA (Rvb < 7.8 pg/ml); type: functional; conditions: dose 10-20 µM
Compound,inhibition (BMDM [1]),inhibition (BMDM [2]),inhibition (BMDM [3]),Activity (BMDM [4]),inhibition (BMDM [4]),inhibition (BMDM [5]),Activity (BMDM [6]),inhibition (BMDM [6])
C=C(C(=O)O)[C@H]1C=C2C(C)=CCC[C@]2(C)[C@@H](O)C1,Dose-Dependent Effect,Active,Active,<7.8 pg/mL,Dose-Dependent Effect,Dose-Dependent Effect,,
C=C(C(=O)O)[C@H]1CC2=C(C)CCC[C@]2(C)[C@@H](OC(C)=O)C1,,Active,Active,,,,,
C=C(C(=O)O)[C@@H]1C[C@H](O)[C@@]2(C)CCCC(=C)[C@]2(O)C1,,Active,Active,,,,,
C=C(C(=O)O)[C@H]1CC2=C(C)[C@H](OCC)CC[C@]2(C)[C@@H](OC(C)=O)C1,,Active,Active,,,,,
C=C(C(=O)O)[C@H]1CC2=C(C(=O)O)CCC[C@]2(C)[C@@H](OC(C)=O)C1,,Active,Active,,,,,
C=C(C(=O)O)[C@H]1CC2=C(CO)CCC[C@]2(C)[C@@H](OC(C)=O)C1,,Active,Active,,,,,
C=C(C(=O)O)[C@@H]1C[C@H](OC(C)=O)[C@@]2(C)CCCC(=C)[C@@]2(O)C1,,Active,Active,,,,,
C=C(C(=O)O)[C@@H]1CC[C@@]2(C)CCC[C@@](C)(O)[C@@H]2C1,,Active,Active,,,,,
C[C@]12CCC(=O)C=C1[C@H](O)[C@H]([C@](C)(O)CO)CC2,Dose-Dependent Effect,Active,Active,<7.8 pg/mL,Dose-Dependent Effect,Dose-Dependent Effect,,
C=C(C(=O)O)[C@H]1CC2=C(C)CCC[C@]2(C)[C@@H](O)C1,Dose-Dependent Effect,Active,Active,,,Dose-Dependent Effect,<7.8 pg/mL,Dose-Dependent Effect
C=C(C(=O)O)[C@@H]1C[C@H](OC(C)=O)[C@@]2(C)CCCC(=C)[C@]2(O)C1,Dose-Dependent Effect,Active,Active,<7.8 pg/mL,Dose-Dependent Effect,Dose-Dependent Effect,,
C=C(C(=O)O)[C@H]1C=C2C(C)=CCC[C@]2(C)[C@@H](OC(C)=O)C1,,Active,Active,,,,,
C=C(C(=O)O)[C@H]1CC2=C(C)C(=O)CC[C@]2(C)[C@@H](OC(C)=O)C1,Dose-Dependent Effect,Active,Active,<7.8 pg/mL,Dose-Dependent Effect,Dose-Dependent Effect,,
C=C(C(=O)O)[C@H]1CC2=C(C)[C@H](OC)CC[C@]2(C)[C@@H](OC(C)=O)C1,,Active,Active,,,,,
C=C(C(=O)O)[C@H]1CC2=C(C)C(=O)CC[C@]2(C)[C@@H](O)C1,,Active,Active,,,,,
C=C(C(=O)O)[C@H]1CC2=C(C=O)CCC[C@]2(C)[C@@H](O)C1,,Active,Active,,,,,
C=C(C(=O)O)[C@H]1CC2=C(C)[C@@H](O)CC[C@]2(C)[C@@H](OC(C)=O)C1,,Active,Active,,,,,
C=C(C(=O)O)[C@H]1CC2=C(C)[C@H](O)CC[C@]2(C)[C@@H](OC(C)=O)C1,,Active,Active,,,,,
CC(=O)O[C@H]1C[C@@H]([C@@](O)(CO)C(=O)O)CC2=C(C)CCC[C@@]21C,Dose-Dependent Effect,Active,Active,,,Dose-Dependent Effect,<7.8 pg/mL,Dose-Dependent Effect
CC(=O)O[C@H]1C[C@@H]([C@](O)(CO)C(=O)O)CC2=C(C)CCC[C@@]21C,,Active,Active,,,,,

# From ChEMBL document CHEMBL4834449, “Anti-inflammatory Eudesmane Sesquiterpenoids from Artemisia hedinii” (2021)
